Reference: US20140045824A1, “METHOD FOR PRODUCING COMPLEX CRYSTAL AND METHOD FOR SCREENING COMPLEX CRYSTAL” (priority 2011, published 2014)

How the values were obtained:
Format in all cases: physicochemical
[1] = Cocrystal screening by heat melting 1-menthol (Example 2), powder X-ray diffraction and thermal analysis; design: key: A cocrystal was completely formed.; B: A mixture of a cocrystal and the host compound or guest compound was formed.; C: A cocrystal was not formed (a mixture of the host compound and the guest compound was formed); conditions: host carbamazepine, equimolar guest, 1-menthol added, 10 hours at 80° C.
Protocol: Carbamazepine and a guest compound shown in Table 4 in an equimolar amount to carbamazepine were weighed and mixed using an agate mortar. […] Thereafter, the obtained mixed powder of carbamazepine, the guest compound, and 1-menthol was heated for 10 hours in an oven at 80° C., and the obtained solids were subjected to powder X-ray diffraction measurement and thermal analysis.

[2] = Cocrystal screening by slurry method (Comparative Examples 1-1 to 1-6), powder X-ray diffraction; design: key to Cocrystal formation, Comparative Example 1* / Cocrystal formation, Comparative Example 1-1 / Cocrystal formation, Comparative Example 1-2 / Cocrystal formation, Comparative Example 1-3 / Cocrystal formation, Comparative Example 1-4 / Cocrystal formation, Comparative Example 1-5 / Cocrystal formation, Comparative Example 1-6: A cocrystal was completely formed.; B: A mixture of a cocrystal and the host compound or guest compound was formed.; C: A cocrystal was not formed (a mixture of the host compound and the guest compound was formed); conditions: host theophylline; for Cocrystal formation, Comparative Example 1-6: slurry in acetone; for Cocrystal formation, Comparative Example 1-6 / Cocrystal formation, Comparative Example 1-2 / Cocrystal formation, Comparative Example 1-5 / Cocrystal formation, Comparative Example 1-3 / Cocrystal formation, Comparative Example 1-4 / Cocrystal formation, Comparative Example 1-1: room temperature 7 days; for Cocrystal formation, Comparative Example 1-2: slurry in ethanol; for Cocrystal formation, Comparative Example 1-5: slurry in ethyl acetate; for Cocrystal formation, Comparative Example 1-3: slurry in tetrahydrofuran; for Cocrystal formation, Comparative Example 1-4: slurry in toluene; for Cocrystal formation, Comparative Example 1*: slurry summary: A if a cocrystal was formed in any one of Comparative Examples 1-1 to 1-6
Protocol: (§1) 3 mg (0.0167 mmoles) of theophylline and a guest compound shown in Table 1 in an equimolar amount (0.0167 mmoles) to theophylline were weighed and put into a glass container, to which was then added 60 μL of water. These were shaken at room temperature for 7 days, and the obtained residues were subjected to powder X-ray diffraction measurement. 3 mg (0.0167 mmoles) of theophylline and a guest compound shown in Table I in an equimolar amount (0.0167 mmoles) to theophylline were weighed and put into a glass container, to which was then added 60 μL of ethanol. These were shaken at room temperature for 7 days, and the obtained residues were subjected to powder X-ray diffraction measurement. 3 mg (0.0167 mmoles) of theophylline and a guest compound shown in Table 1 in an equimolar amount (0.0167 mmoles) to theophylline were weighed and put into a glass container, to which was then added 60 μL of tetrahydrofuran. This was shaken at room temperature for 7 days, and the obtained residues were subjected to powder X-ray diffraction measurement. 3 mg (0.0167 mmoles) of theophylline and a guest compound shown in Table 1 in an equimolar amount (0.0167 mmoles) to theophylline were weighed and put into a glass container, to which was then added 60 μL of toluene. These were shaken at room temperature for 7 days, and the obtained residues were subjected to powder X-ray diffraction measurement. 3 mg (0.0167 mmoles) of theophylline and a guest compound shown in Table 1 in an equimolar amount (0.0167 mmoles) to theophylline were weighed and put into a glass container, to which was then added 60 μL of ethyl acetate. These were shaken at room temperature for 7 days, and the obtained residues were subjected to powder X-ray diffraction measurement. 3 mg (0.0167 mmoles) of theophylline and a guest compound shown in Table 1 in an equimolar amount (0.0167 mmoles) to theophylline were weighed and put into a glass container, to which was then added 60 μL of acetone. These were shaken at room temperature for 7 days, and the obtained residues were subjected to powder X-ray diffraction measurement.

[3] = Cocrystal screening by slurry method (Comparative Examples 4-1 to 4-6), powder X-ray diffraction; design: key: A cocrystal was completely formed.; B: A mixture of a cocrystal and the host compound or guest compound was formed.; C: A cocrystal was not formed (a mixture of the host compound and the guest compound was formed).; —: A residue was not obtained; conditions: host carbamazepine, room temperature 7 days; for Cocrystal formation, Comparative Example 4-3: slurry in tetrahydrofuran
Protocol: as §1, with “(0.0127” for “(0.0167”, “carbamazepine” for “theophylline”, “4” for “1”, “4” for “I”, “These were” for “This was”

[4] = Cocrystal formation by heating under humidified condition without menthol (Comparative Example 7); design: key: A cocrystal was completely formed.; B: A mixture of a cocrystal and the host compound or guest compound was formed.; C: A cocrystal was not formed (a mixture of the host compound and the guest compound was formed); conditions: host theophylline, no menthol, 80° C. and 90% RH
Protocol: About 30 mg (0.167 mmoles) of theophylline and […] of L(+)-arginine were weighed and put into a test tube and mixed using an agate mortar. […] 15 mg of this mixed powder was weighed and put into a test tube and heated for 6 and 21 hours, respectively in a thermo-hygrostat at 80° C. and 90% RH, and the obtained solids were subjected to powder X-ray diffraction measurement and thermal analysis.

SMILES | Cocrystal formation, Example 2 [1] | Cocrystal formation, Comparative Example 1-6 [2] | Cocrystal formation, Comparative Example 1-2 [2] | Cocrystal formation, Comparative Example 1-5 [2] | Cocrystal formation, Comparative Example 1-3 [2] | Cocrystal formation, Comparative Example 1-4 [2] | Cocrystal formation, Comparative Example 1-1 ([2]; slurry in water) | Cocrystal formation, Comparative Example 1* [2] | Cocrystal formation, Comparative Example 4-3 [3] | Cocrystal formation, Comparative Example 4-5 ([3]; slurry in ethyl acetate) | Cocrystal with theophylline found, Comparative Example 1-1 ([2]; slurry in water) | Cocrystal formation, Comparative Example 7, Heating for 6 hours ([4]; 6 hours) | Cocrystal formation, Comparative Example 7, Heating for 21 hours ([4]; 21 hours)
NC(=O)c1cccnc1 [Nicotinamide] | A | A | B | A | B | A | C | A |  |  |  |  | 
CC(C)C[C@H](N)C(=O)O [L-Leucine] | C | C | C | C | C | C | C | C | — |  |  |  | 
O=C(O)CC(O)(CC(=O)O)C(=O)O [Citric acid] | B | C | C | A | C | C | C | A | — | — |  |  | 
NC(=O)c1ccccc1 [Benzamide] | A | C | C | C | C | C | A | A |  |  |  |  | 
O=S(=O)(O)CCS(=O)(=O)O [Ethanedisulfonic acid] | A | A | A | A | A | A | C | A |  |  |  |  | 
N=C(N)NCCC[C@H](N)C(=O)O [L(+)-Arginine] | C | C | C | C | C | C | A | A | — |  | could be found out | A | A
O=C(O)c1ccccc1 [Benzoic acid] | A | C | C | C | C | C | C | C | — |  |  |  | 
C/C=C/C=C/C(=O)O [Sorbic acid] | A | C | C | A | C | A | C | A | — |  |  |  | 
O=C(O)CCCC(=O)O [Glutaric acid] | A | C | C | C | C | C | C | C | — |  |  |  | 

Further lines, with some results ahead:

Cocrystal formation, Example 2 [1] | Cocrystal formation, Comparative Example 1-6 [2] | Cocrystal formation, Comparative Example 1-2 [2] | Cocrystal formation, Comparative Example 1-5 [2] | Cocrystal formation, Comparative Example 1-3 [2] | Cocrystal formation, Comparative Example 1-4 [2] | Cocrystal formation, Comparative Example 1-1 ([2]; slurry in water) | Cocrystal formation, Comparative Example 1* [2] | Cocrystal formation, Comparative Example 4-3 [3] | Cocrystal formation, Comparative Example 4-5 ([3]; slurry in ethyl acetate) | SMILES | Cocrystal with theophylline found, Comparative Example 1-1 ([2]; slurry in water) | Cocrystal formation, Comparative Example 7, Heating for 6 hours ([4]; 6 hours) | Cocrystal formation, Comparative Example 7, Heating for 21 hours ([4]; 21 hours)
A | C | A | A | C | C | C | A | — |  | O=C1NS(=O)(=O)c2ccccc21 [Saccharin] |  |  | 
A | A | C | A | A | C | C | A | — |  | O=C(O)C(=O)O [Oxalic acid] |  |  | 
C | C | C | C | C | C | C | C | — |  | NCC(=O)O [Glycine] |  |  | 
A | C | C | A | C | A | C | A |  |  | O=C(O)/C=C\C(=O)O [Maleic acid] |  |  | 
